Assay results as given in ChEMBL document CHEMBL4680118, “Cerpegin-derived furo[3,4-c]pyridine-3,4(1H,5H)-diones enhance cellular response to interferons by de novo pyrimidine biosynthesis inhibition” (Eur J Med Chem, 2020).
The source made the active and inactive calls. The calls are words filed in the database; no cut-off is given here.

These molecules were tested against T1, Dihydroorotate dehydrogenase (quinone), mitochondrial (Homo sapiens, UniProt Q02127) (assay: Inhibition of DHODH in human HEK-293 cells transfected with ISRE-luciferase reporter gene assessed as increase in IFN-alpha mediated cellular response at 6 to 178 uM after 24 hrs by luciferase reporter gene assay). Conditions: HEK293, dose 6-178 µM.
Format: cell-based

T1 sequence (Q02127 whole entry): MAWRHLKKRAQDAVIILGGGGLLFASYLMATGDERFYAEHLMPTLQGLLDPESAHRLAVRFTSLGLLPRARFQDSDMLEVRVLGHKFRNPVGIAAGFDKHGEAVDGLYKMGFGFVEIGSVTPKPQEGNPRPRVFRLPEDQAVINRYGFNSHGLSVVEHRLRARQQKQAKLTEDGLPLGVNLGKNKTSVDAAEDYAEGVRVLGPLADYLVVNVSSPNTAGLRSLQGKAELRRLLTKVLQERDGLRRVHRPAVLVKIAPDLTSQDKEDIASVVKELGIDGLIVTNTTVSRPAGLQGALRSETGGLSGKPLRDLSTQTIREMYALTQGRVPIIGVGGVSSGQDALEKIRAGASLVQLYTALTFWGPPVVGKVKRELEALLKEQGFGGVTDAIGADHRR

Activity | Structure (SMILES)
Active | CC1(c2ccccc2)OC(=O)c2c1ccn(C1CC1)c2=O (stereo not given)

Each molecule was assayed against T1, Dihydroorotate dehydrogenase (quinone), mitochondrial (assay: Inhibition of DHODH in human HEK-293 cells transfected with ISRE-luciferase reporter gene assessed as increase in IFN-alpha mediated cellular response after 24 hrs by luciferase reporter gene assay). Conditions: read-out: EC50.

EC50 [µM] | Structure (SMILES)
27 | CC1(c2ccccc2)OC(=O)c2c1ccn(C1CC1)c2=O (stereo not given)

Same assay, conditions: read-out: pEC50 (converted)

Structure (SMILES) | EC50 [µM]
O=C1OC2(CCCCC2)c2ccn(C3CCCC3)c(=O)c21 | > 158
O=C1OC2(CCCCC2)c2ccn(C3CCC3)c(=O)c21 | > 158
CCC1(C)OC(=O)c2c1ccn(C1CC1)c2=O (stereo not given) | > 158
O=C1OC2(CCCCC2)c2ccn(CC3CC3)c(=O)c21 | > 158
O=C1OC2(CCCCC2)c2ccn(C3CCCCC3)c(=O)c21 | > 158
O=C1OC2(CCCCC2)c2ccnc(O)c21 | > 158
O=C1OC2(CCCC2)c2ccn(C3CC3)c(=O)c21 | 52.5

More lines, now with the values ahead:

EC50 [µM] | Structure (SMILES)
> 158 | CC1(C)OC(=O)c2c1ccn(C1CC1)c2=O
> 158 | Cn1ccc2c(c1=O)C(=O)OC21CCCCC1
> 158 | CC1=C(C(=O)NC2CC2)C(=O)OC12CCCCC2
> 158 | CC1(C)OC(=O)c2c1ccnc2O
> 158 | CC(C)n1ccc2c(c1=O)C(=O)OC21CCCCC1
> 158 | CCC1(CC)OC(=O)c2c1ccn(C1CC1)c2=O
